Our source for the IC50, Ki and inhibition in vivo values is patent publication US9440938B2, “Sulfonamide derivative having PGD2 receptor antagonistic activity” (SHIONOGI & CO., LTD., priority 2005, dated 2016).

By Ki is commonly meant the equilibrium dissociation constant of an inhibitor or competing ligand from its target. Read a high Ki as weaker binding.

Experiment [1] has as its target T1, DP receptor (Homo sapiens, UniProt Q13258).
T1 construct: endogenous in cells; host or cells: washed platelets from peripheral blood of a healthy volunteer
T1 sequence (Q13258 1-359): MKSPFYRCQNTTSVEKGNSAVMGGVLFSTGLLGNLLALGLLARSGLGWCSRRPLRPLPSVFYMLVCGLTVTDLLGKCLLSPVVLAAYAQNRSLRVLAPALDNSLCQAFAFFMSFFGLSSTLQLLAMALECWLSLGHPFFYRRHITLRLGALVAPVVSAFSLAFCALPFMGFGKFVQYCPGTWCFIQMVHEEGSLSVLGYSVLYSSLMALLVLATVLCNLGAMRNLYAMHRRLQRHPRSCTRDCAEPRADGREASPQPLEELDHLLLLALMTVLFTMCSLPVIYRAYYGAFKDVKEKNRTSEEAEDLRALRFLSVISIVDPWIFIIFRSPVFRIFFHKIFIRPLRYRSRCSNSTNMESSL
Nature of the experiment: cAMP assay with washed platelet (DP inhibitory activity in vitro). It counts as cell-based. To be noted: read-out: IC50 (50% DP-inhibitory concentration in the cAMP assay); washed human platelets, 100 nM PGD2, cAMP by HTRF. How it is done: 1) Preparation of Platelet and a Method of cAMP Assay
30 mL of peripheral blood was collected from a healthy volunteer using a syringe containing one ninth amount of 3.8% sodium citrate. After being centrifuged at 180 g for 10 minutes at room temperature, a supernatant was collected and used as Platelet Rich Plasma (PRP). The resulting PRP was washed with wash buffer and centrifuged three times (Washed Platelet: WP) and platelets were counted by a microcell counter. WP was added to a plate in amount of 1.5×10^8/assay and the plate was treated with 3-isobutyl-1-methylxanthin (IBMX; 0.5 mM) for 5 minutes. A reaction was initiated by adding 100 nM of PGD2 5 min after an addition of a test compound. The reaction was terminated with an addition of 1N hydrochloric acid after 2 minutes and the cells were destructed using 12% triton X-100. An amount of cAMP in the supernatant was assayed by Homogeneous Trangient Fluorescence (HTRF)
In general terms: Cyclic AMP is a second messenger, typically raised through Gs and lowered through Gi signalling.

Experiment [2] has as its target T1, DP receptor. The experiment is described as follows: Receptor binding assay, [3H]-PGD2, platelet membrane. The settings on record: [3H]-PGD2, human platelet membrane. The procedure: 2) Receptor Binding Assay
A prepared WP was homogenated and a membrane fraction was collected with high-speed centrifugation. A compound of the present invention or a reference compound A (No. IC-73 in WO 2003/097598) was added to the plate and [^3H]-PGD2 was also added. A platelet membrane, a protein concentration is 2 mg/mL, was added and mixed in the plate, and placed on ice for 2 hours. The reaction solution was transferred to a low protein-adsorptive filter and washed with a wash solution eight times using a cell harvester. After the final washing, water was removed sufficiently, and scintillator was added. DP inhibitory activity was investigated by measuring [^3H] by using Micro Beta.

Another experiment has as its system OVA asthma model of rat. Nature of the experiment: Test using OVA asthma model of rat (airway hyperresponsiveness, infiltration of inflammatory cells, mucus-secretion). It counts as in vivo, Brown Norway (BN) Rats. To be noted: po, 72 h. The procedure:
Test Using OVA Asthma Model of Rat
Brown Norway (BN) Rats were sensitized by i.p. administration of 0.1 mg/mL of ovalbumin (OVA) and 1 mg of aluminum hydroxide gel. A solution of 1% OVA was aerosolized by ultrasonic nebulizer (NE-U17) and the rats were subjected to inhalation exposure of the aerosol for 30 minutes in an exposing chamber 12, 19, 26 and 33 days after the sensitization. One hour before the 4th exposure of the antigen, compounds of the present invention were administered in a dose of 10 mg/kg p.o. once a day for three days consecutively. In a control group, 0.5% of methyl cellulose was administered in place of the compound of the present invention.
Under pentobarbital anesthesia (80 mg/kg, i.p.), acetylcholine (3.9, 7.8, 15.6, 31.3, 62.5, 125, 250 and 500 μg/kg) was injected to jugular vein of the rats successively from a lower dose at intervals of 5 minutes three days after the fourth exposure to the antigen, and immediate contractile reaction of airways (an increase of insufflation pressure) was measured by a modified method of Konnzett & Ririssler. Inhibition rate of airway hyperresponsiveness against the control group was calculated based on area under the curve (AUC) obtained from concentration-response curve of acetylcholine.
After the measurement of increased hyperresponsive airway was completed, bronchoalveoli of the rats were washed with 5 mL of saline three times. Total cell number in the washings was counted by a hemacytometer under light microscope, and inhibition rates of infiltration of inflammatory cells against the control group were calculated. Further, mucin in the airway lavage fluid was measured by ELISA method using jacalin, a mucin-binding lectin, and the inhibition rates of mucus-secretion against the control group were calculated.

SMILES strings stand for the structures. Read-outs that look alike come from different tables or passages of the source.

Take `CC(C)Oc1ccc(S(=O)(=O)N2CCC(Oc3ccccc3/C=C/C(=O)O)CC2)cc1` [Compound I-7]: on DP receptor [1], the IC50 came to 2400 nM.
As for `COc1cccc(OC2CCN(S(=O)(=O)c3ccc(OC(C)C)cc3)CC2)c1/C=C/C(=O)O` [Compound I-8], the IC50 at DP receptor [1] was determined as 2100 nM.
As for `CC(C)Oc1ccc(S(=O)(=O)N2CCC(Oc3ccc(Cl)cc3CCC(=O)O)CC2)cc1` [Compound I-10], the IC50 at DP receptor [1] is 2700 nM. The Ki at DP receptor [2] was 30000 nM.
As to `CC(C)Oc1ccc(S(=O)(=O)N2CCC(Oc3ccccc3CCC(=O)O)CC2)cc1` [Compound I-11], the IC50 on DP receptor [1] amounted to 3000 nM.
Same read-out and setting: with `COc1cccc(OC2CCN(S(=O)(=O)c3ccc(OC(C)C)cc3)CC2)c1CCC(=O)O` [Compound I-12] the figure was 4200 nM; with `CC(C)Oc1ccc(S(=O)(=O)N2CCC(Oc3ccc(F)cc3CCC(=O)O)CC2)cc1` [Compound I-18], 1600 nM; with `CC(C)Oc1ccc(S(=O)(=O)N2CC=C(c3ccc(Cl)c(OCC(=O)O)c3)CC2)cc1` [Compound I-30], 510 nM.
On to `CC(C)Oc1ccc(S(=O)(=O)N2CCC(c3ccc(Cl)c(OCC(=O)O)c3)CC2)cc1` [Compound I-31], for which, on DP receptor [1], the IC50 was determined as 160 nM. The same molecule displayed a Ki at DP receptor [2] of 3600 nM.
With `Cc1ccc(N2CCN(S(=O)(=O)c3ccc(OC(C)C)cc3)CC2)cc1OCC(=O)O` [II-8], the IC50 on DP receptor [1] worked out at 4600 nM.
For `CC(C)Oc1ccc(S(=O)(=O)N2CCN(c3ccc(Cl)c(OCC(=O)O)c3)CC2)cc1` [II-10], the IC50 on DP receptor [1] was determined as 410 nM. Besides, at DP receptor [2], the Ki is 650 nM.
On to `CC(C)Oc1ccc(S(=O)(=O)N2CCN(c3cccc(OCC(=O)O)n3)CC2)cc1` [II-11], for which, at DP receptor [1], the IC50 was 2300 nM.
As for `CC(C)Oc1ccc(S(=O)(=O)N2CCN(c3ccc(Cl)c(/C=C/C(=O)O)c3)CC2)cc1` [II-18], the IC50 on DP receptor [1] was determined as 4900 nM.
On the same count and under the same terms, for `CC(C)Oc1ccc(S(=O)(=O)N2CCN(c3ccc(Cl)c(CC(=O)O)c3)CC2)cc1` [II-20] the value was 4300 nM.
Consider `CC(C)Oc1ccc(S(=O)(=O)N2CCN(c3cc(F)cc(OCC(=O)O)c3)CC2)cc1` [II-25], for which the IC50 on DP receptor [1] stood at 670 nM. This molecule returned a Ki on DP receptor [2] of 1600 nM.
Taken in the same sequence, the figures for `CC(C)Oc1ccc(S(=O)(=O)N2CCN(c3ccc(NC(=O)c4ccccc4)c(OCC(=O)O)c3)CC2)cc1` [II-28] were 2500 nM and 3800 nM.
In the case of `CC(C)Oc1ccc(S(=O)(=O)N2CCN(c3ccc(Cl)c(OCC(=O)O)c3)CC2)cc1F` [II-31], on DP receptor [1], the IC50 came out at 810 nM. Further, the Ki at DP receptor [2] came to 3700 nM.
`COCC#Cc1cc(OCC(=O)O)cc(N2CCN(S(=O)(=O)c3ccc(OC(C)C)cc3)CC2)c1` [II-37]: the IC50 on DP receptor [1] turned out to be 1500 nM.
On the same count and under the same terms, for `Cc1cc(OCC(=O)O)cc(N2CCN(S(=O)(=O)c3ccc(OC(C)C)cc3)CC2)c1` [II-41] the value was 3500 nM.
On to `CC(C)Oc1ccc(S(=O)(=O)N2CCN(c3ccc(Cl)c(OCC(=O)O)c3)C(C)C2)cc1` (stereo not shown) [II-44], for which the IC50 on DP receptor [1] was 690 nM. In addition, on DP receptor [2], affinity was put at a Ki of 1600 nM.
For `CC(C)Oc1ccc(S(=O)(=O)N2CCN(c3ccc(-c4nnco4)c(OCC(=O)O)c3)CC2)cc1` [II-46], in that order: 790 nM and 870 nM.
For `CC(C)Oc1ccc(S(=O)(=O)N2CCN(c3ccc(NC(=O)c4ccccn4)c(OCC(=O)O)c3)CC2)cc1` [II-47], in that order: 3100 nM and 2200 nM.
Take `CC(C)Oc1ccc(S(=O)(=O)N2CCN(c3ccc(NC(=O)c4cccnc4)c(OCC(=O)O)c3)CC2)cc1` [II-48]: the IC50 on DP receptor [1] stood at 4600 nM.
Turning to `CC(C)Oc1ccc(S(=O)(=O)N2CCN(c3cc(OCC(=O)O)cc(-c4cccs4)c3)CC2)cc1` [II-51], on DP receptor [1], the IC50 was found to be 640 nM. The molecule further gave a Ki on DP receptor [2] of 520 nM.
Consider `CC(C)Oc1ccc(S(=O)(=O)N2CCN(c3ccc(-c4ccccc4)c(OCC(=O)O)c3)CC2)cc1` [II-53], for which, at DP receptor [1], the IC50 was 2300 nM.
The same measure, in the same setting: with `CC(C)Oc1ccc(S(=O)(=O)N2CCN(c3cc(F)c(F)c(OCC(=O)O)c3)CC2)cn1` [II-55] the figure was 3000 nM.
Same read-out and setting: with `CC(C)Oc1ccc(S(=O)(=O)N2CCN(c3cc(OCC(=O)O)cc(-c4ccccc4)c3)CC2)cc1` [II-57] the figure was 1200 nM.
In the case of `CC(C)Oc1ccc(S(=O)(=O)N2CCN(c3ccc(NC(=O)c4ccno4)c(OCC(=O)O)c3)CC2)cc1` [II-58], the IC50 on DP receptor [1] worked out at 3500 nM.
As for `COC(=O)Nc1ccc(N2CCN(S(=O)(=O)c3ccc(OC(C)C)cc3)CC2)cc1OCC(=O)O` [II-59], the IC50 at DP receptor [1] amounted to 4300 nM.
On to `Cc1cc(C(=O)Nc2ccc(N3CCN(S(=O)(=O)c4ccc(OC(C)C)cc4)CC3)cc2OCC(=O)O)no1` [II-60], for which, on DP receptor [1], the IC50 came to 880 nM. Also, affinity at DP receptor [2] was put at a Ki of 2600 nM.
Taken in the same sequence, the figures for `Cc1nnc(-c2ccc(N3CCN(S(=O)(=O)c4ccc(OC(C)C)cc4)CC3)cc2OCC(=O)O)o1` [II-61] were 2100 nM and 1400 nM.
With `CC(C)Oc1ccc(S(=O)(=O)N2CCN(c3ccc(C(=O)Nc4ccccc4)c(OCC(=O)O)c3)CC2)cc1` [II-62], the IC50 on DP receptor [1] worked out at 1100 nM. On DP receptor [2], this molecule yielded a Ki of 4700 nM.
For the molecule `CC(C)NC(=O)c1ccc(N2CCN(S(=O)(=O)c3ccc(OC(C)C)cc3)CC2)cc1OCC(=O)O` [II-63], the inhibition in vivo at 10 mg/kg is 79% in the experiment on OVA asthma model of rat (BN rats, 10 mg/kg p.o. once a day for three days, mucin in airway lavage fluid by ELISA against control group, read-out: inhibition rate (%) mucus-secretion); 59% in the experiment with OVA asthma model of rat (BN rats, 10 mg/kg p.o. once a day for three days, total cell number in bronchoalveolar washings against control group, read-out: inhibition rate (%) infiltration of inflammatory cells); 41% in the experiment on OVA asthma model of rat (read-out: inhibition rate (%) airway hyperresponsiveness).
For `CC(C)Oc1ccc(S(=O)(=O)N2CCN(c3ccc(-c4ccco4)c(OCC(=O)O)c3)CC2)cc1` [II-65], at DP receptor [1], the IC50 was 140 nM. Further, the affinity at DP receptor [2] corresponds to a Ki of 16000 nM.
Turning to `CC(C)OC(=O)Nc1ccc(N2CCN(S(=O)(=O)c3ccc(OC(C)C)cc3)CC2)cc1OCC(=O)O` [II-67], the IC50 at DP receptor [1] worked out at 1700 nM.
Take `CC(C)NC(=O)Nc1ccc(N2CCN(S(=O)(=O)c3ccc(OC(C)C)cc3)CC2)cc1OCC(=O)O` [II-68]: the IC50 on DP receptor [1] amounted to 17000 nM.
The same measure, in the same setting: with `CC(C)Oc1ccc(S(=O)(=O)N2CCN(c3cc(OCC(=O)O)ccc3Cl)CC2)cc1` [II-69] the figure was 1400 nM; with `CC(C)Oc1ccc(S(=O)(=O)N2CCN(c3ccc(OCc4ccccc4)c(OCC(=O)O)c3)CC2)cc1` [II-71], 4100 nM.
Consider `Cc1cnc(-c2ccc(N3CCN(S(=O)(=O)c4ccc(OC(C)C)cc4)CC3)cc2OCC(=O)O)o1` [II-73], for which the IC50 at DP receptor [1] worked out at 1000 nM. The molecule further gave a Ki at DP receptor [2] of 1100 nM.
Regarding `CC(C)Oc1ccc(S(=O)(=O)N2CCN(c3ccc(-c4ncco4)c(OCC(=O)O)c3)CC2)cc1` [II-74], the IC50 on DP receptor [1] was 520 nM. The Ki on DP receptor [2] turned out to be 240 nM.
As to `CC(C)Oc1ccc(S(=O)(=O)N2CCN(c3ccc(OCc4ccoc4)c(OCC(=O)O)c3)CC2)cc1` [II-77], the IC50 on DP receptor [1] amounted to 3600 nM.
The same measure, in the same setting: for `CC(C)Oc1ccc(S(=O)(=O)N2CCN(c3ccc(Oc4ccccc4)c(OCC(=O)O)c3)CC2)cc1` [II-79] the value was 2300 nM; for `CC(C)Oc1ccc(S(=O)(=O)N2CCN(c3ccc(Br)c(OCC(=O)O)n3)CC2)cc1` [II-90], 590 nM.
As for `CC(=O)c1ccc(N2CCN(S(=O)(=O)c3ccc(OC(C)C)cc3)CC2)cc1OCC(=O)O` [II-91], the IC50 on DP receptor [1] is 1300 nM.
